# Legend:
# [1] = test system: mice with acute inflammatory lung injury; settings: mouse, in vivo
# A2AR gene deficient mice = assay: Selectivity control: lung inflammation in A2AR gene deficient mice; assay type: in vivo; settings: dosing regimen used to treat WT mice (data not shown)
# Text: Thus, the exogenously added selective, synthetic A2AR agonist compensated for the loss of endogenously formed adenosine in oxygenated and inflamed lungs thereby decreasing lung injury and rescuing mice from death.
# [2] = test system: oxygenated mice with inflammatory lung injury; settings: mouse, in vivo
# endotoxin-treated mice = assay: Lung injury in endotoxin-treated mice; assay type: in vivo
# [3] = i.t. injections, endotoxin-treated mice (data not shown)
SMILES,BAL fluid protein [1],alveolo-capillary permeability (protein recovered by broncho-alveolar lavage) [1],arterial pO2 after return to normal atmosphere [1],death in short-term assays [1],deaths of mice with inflamed lungs versus 21% ambient oxygen [1],"inflammatory lung injury (exudate protein in alveolar spaces, arterial blood oxygen tension) [1]",mice that died during 15 min equilibration period in normal atmosphere [1],lung inflammation in A2AR gene deficient mice (A2AR gene deficient mice),number of deaths (oxygenation-induced death) [2],pulmonary PMN sequestration (endotoxin-treated mice; histological examination),lung tissue damage as assessed by lung injury score (endotoxin-treated mice; histological examination (not shown)),accumulation of PMN (endotoxin-treated mice; [3]),lung gas exchange (endotoxin-treated mice; [3]),lung injury (endotoxin-treated mice; [3]),lung vascular permeability (endotoxin-treated mice; [3]),production of reactive oxygen metabolites (endotoxin-treated mice; [3])
O=O [oxygen],small accumulation,much more pronounced increase,decrease,did not result in death,Five times more,exacerbation,three out of seven,,,,,,,,,
CCNC(=O)[C@H]1O[C@@H](n2cnc3c(N)nc(NCCc4ccc(CCC(=O)O)cc4)nc32)[C@H](O)[C@@H]1O [CGS21680],,,,,,,,did not affect,dramatically reduced,inhibition,fourfold decrease,significantly decreased,improved,significantly inhibited,less pronounced increases,reduced

# — patent US8455437B2, “Method to predict and prevent oxygen-induced inflammatory tissue injury” (The United States of America, as Represented by the …, priority 2005, dated 2013)
